The subject of this test is 276233-004-R-J1-PDC complex spheroid viability. Kind of test: Anticancer human tumor 276233-004-R-J1-PDC patient-derived colon adenocarcinoma cell line growth inhibition [GQUAD]. The conditions noted are these: for viability, T/C: stronger effect = lower value; for IC50: curve of compound. From the text: DNA G-quadruplex Stabilizer Agents in Combinations in Complex Spheroids
A high-throughput screen of multi-cell type tumor spheroids was designed to identify active combinations of DNA G-quadruplex stabilizer agents and targeted small molecules. Complex spheroids include a stromal component modeled by human endothelial cells (HUVEC) and fibroblasts modeled by human mesenchymal stem cells (MSCs). The concentration ranges selected for each drug and investigational agent were based upon clinically achievable concentrations if the clinical Cmax of the agent was known.
Compounds. The drugs and investigational agents: pidnarulex (CX-5461; NSC782164), APTO-253 (NSC789042), BRACO-19 (NSC847499), peposertib (NSC802822), ceralasertib (NSC780249), elimusertib (NSC800525), camonsertib (NSC841442), AZD-1390 (NSC803789), olaparib (NSC753686), talazoparib (NSC767125), ART-558 (NSC835418), sotorasib (NSC818433), MRTX-1133 (NSC836407), SN-38 (NSC673596), topotecan (NSC609699), etoposide (NSC141540), doxorubicin (NSC123127), gemcitabine (NSC613327), 5-fluorouracil (NSC19893), paclitaxel (NSC125973), vemurafenib (NSC761431), panobinostat (NSC761190), R-306465 (JNJ-16241199; NSC773264), adavosertib (NSC754352), TP-3654 (NSC805149), carboplatin (NSC241240), KSQ-4279 (NSC840948), and staurosporine (NSC755774) were obtained from the National Cancer Institute (NCI) Developmental Therapeutics Program Chemical Repository (34). The FDA-approved anticancer drug set is available from the NCI Developmental Therapeutics Program. […] The stock solutions were prepared in dimethyl sulfoxide (DMSO, Sigma-Aldrich, St. Louis, MO, cat. D2650) at 800-fold the tested concentration and stored at -70 degrees C prior to their use. All drugs and investigational agents were tested over a range starting from a high concentration at or near the clinical Cmax and decreasing in half-log increments. If the clinical Cmax for an agent had not been determined, the highest concentration tested was 10 microM.
2.3 Cell Culture. All cells were maintained in an incubator at 37 degrees C and 5% CO2 with 95% humidity. The PDC lines were cultured according to standard operating procedures established by the NCI PDMR. All PDCs were thawed and cultured in Matrigel-coated flasks prepared with a working solution of 1X Ham's F-12 nutrient mix, without supplementation (Invitrogen, cat. 11765054), 100 U/mL penicillin-streptomycin (Invitrogen, cat. 15140122), and 2.5% Matrigel (Corning Inc., cat. 354248) for the first three passages. The 857933-349-R-J2-PDC line was cultured in 6C/Colon 1B media, which includes advanced DMEM/F-12 (Thermo Fisher Scientific, cat. 12634028), 10 mM HEPES (Thermo Fisher Scientific, cat. 15630080), 1X GlutaMAX supplement (Thermo Fisher Scientific, cat. 35050061), 0.1 mg/mL primocin (InvivoGen, cat. ant-pm-2), 10% defined fetal bovine serum, heat inactivated (HyClone Laboratories Inc., cat. SH30070.03HI), 50% L-WRN conditioned media (ATCC, cat. CRL-3276), 1.25 mM N-Acetyl-L-cysteine (Sigma-Aldrich, cat. A9165), 10 mM nicotinamide (Sigma-Aldrich, cat. N0636), 1X B-27 supplement (Thermo Fisher Scientific, cat. 17504044), 1X N-2 supplement (Thermo Fisher Scientific, cat. 17502048), 10 microM Y-27632 dihydrochloride (Tocris Bioscience, cat. 1254), and 50 ng/mL human EGF recombinant protein (Thermo Fisher Scientific, cat. PHG0311). The 485176-168-R4-J1-PDC line was cultured in Panc media, which includes all 6C/Colon 1B media components plus 100 ng/mL human FGF-10 (Thermo Fisher Scientific, cat. 100-26), 500 nM SB-431542 (Selleckchem, cat. S1067), and gastrin (Tocris, cat. 3006).
[…]

This passage reports viability, T/C and IC50 results from PubChem BioAssay AID2060496 (Molecular Pharmacology Branch, DTP, NCI, 2025).

SMILES strings stand for the structures. Several values for one entry are separate records, joined by “and”; a condition that tells them apart may be missing. Equal values may be shown once.
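Note: spheroids exposed to drugs for seven days.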

For `CCCS(=O)(=O)Nc1ccc(F)c(C(=O)c2c[nH]c3ncc(-c4ccc(Cl)cc4)cc23)c1F`, the concentration for half-maximal inhibition (IC50) (in general, the concentration at which inhibition is half-maximal) was above 10 µM. Besides, the viability, T/C (as a rule, the result in the treated group divided by that in the control group, in per cent) (compound 0.0316 µM) was 85% and 77.1% and 99.3%. Moreover, the viability, T/C (compound 0.1 µM) was 91.3% and 96.2% and 84.7%. For the same molecule, under “compound 0.316 µM”, the viability, T/C was 85.8% and 98.6% and 111%. The viability, T/C (compound 1 µM) was 97.5% and 83.7% and 96.3%. Also, the viability, T/C (compound 3.16 µM) was 79.2% and 91% and 121%. Besides, the viability, T/C (compound 10 µM) was 56.8% and 59.4% and 76.4%.

For the molecule `CC(C)(O)C1CCC(Nc2ccc3ncc(-c4cccc(C(F)(F)F)c4)n3n2)CC1` (stereo not drawn), the IC50 is 2.38 µM and > 10 µM. The viability, T/C (compound 0.0316 µM) was 82.3% and 80.4% and 95.8%. Moreover, for the setting “compound 0.1 µM”, the viability, T/C was 73.1% and 79.5% and 84.1%. For the same molecule, the viability, T/C (compound 0.316 µM) was 72.7% and 86.8% and 87.8%. Further, the viability, T/C (compound 1 µM) is 62.9% and 60.6% and 73.3%. Moreover, for the setting “compound 3.16 µM”, the viability, T/C is 43.8% and 49.5% and 61%. Also, the viability, T/C (compound 10 µM) is 45.6% and 63.7% and 54.7%.

Take `CC(C)n1c(=O)n(C)c2cnc3cc(F)c(-c4ccc(OCCCN5CCCCC5)nc4)cc3c21`: the 50% inhibitory concentration (IC50) was above 10 µM. For the setting “compound 0.0316 µM”, the viability, T/C was 91.9% and 80.4% and 93.2%. The viability, T/C (compound 0.1 µM) was 86.8% and 101% and 78.8%. For the setting “compound 0.316 µM”, the viability, T/C was 107% and 86.6% and 73.3%. Besides, the viability, T/C (compound 1 µM) is 99.4% and 85.9% and 73.2%. The viability, T/C (compound 3.16 µM) is 108% and 84.9% and 95.3%. Further, the viability, T/C (compound 10 µM) is 86.9% and 68.8% and 77%.

Turning to `CC1COCCN1c1cc(C2(O)CC3CCC(C2)O3)c2cnn(-c3ccn[nH]3)c2n1` (stereo not drawn), the IC50 was 3.92 µM and 6.86 µM and 7.56 µM. Besides, the viability, T/C (compound 0.0316 µM) is 98% and 89.3% and 74.2%. For the setting “compound 0.1 µM”, the viability, T/C was 74.3% and 88.6% and 73.8%. The viability, T/C (compound 0.316 µM) is 65.7% and 71% and 68.6%. Further, the viability, T/C (compound 1 µM) is 59.9% and 61.2% and 68.8%. The viability, T/C (compound 3.16 µM) was 56.3% and 54.3% and 63.9%. For the same molecule, the viability, T/C (compound 10 µM) was 41.6% and 47.4% and 45.6%.

For `C=CCn1c(=O)c2cnc(Nc3ccc(N4CCN(C)CC4)cc3)nc2n1-c1cccc(C(C)(C)O)n1`, the IC50 was above 10 µM. The viability, T/C (compound 0.0316 µM) is 108% and 106% and 77.9%. Further, for the setting “compound 0.1 µM”, the viability, T/C was 92.1% and 90.6% and 74.1%. The viability, T/C (compound 0.316 µM) was 70.8% and 73.3% and 90.3%. Also, the viability, T/C (compound 1 µM) is 63.5% and 69.4% and 61.4%. In addition, the viability, T/C (compound 3.16 µM) is 73.4% and 78.4% and 80.3%. The viability, T/C (compound 10 µM) was 65.8% and 87.4% and 92.2%.

On to `Cc1cccc(N(C)C(=O)C2C(O)CCN2c2nc(C)cc(C(F)(F)F)c2C#N)c1` (stereo not drawn), for which the concentration for half-maximal inhibition (IC50) was above 10 µM. Besides, the viability, T/C (compound 0.0316 µM) is 92.6% and 89.1% and 85.7%. For the setting “compound 0.1 µM”, the viability, T/C is 69.5% and 106% and 83.8%. Also, the viability, T/C (compound 0.316 µM) is 74.5% and 101% and 74.6%. Moreover, where the note is “compound 1 µM”, the viability, T/C is 94% and 109% and 85.7%. Besides, the viability, T/C (compound 3.16 µM) is 99.6% and 74.3% and 84.3%. The viability, T/C (compound 10 µM) is 111% and 91.5% and 99.2%.

Take `COc1cc(C2c3cc4c(cc3C(OC3OC5COC(C)OC5C(O)C3O)C3COC(=O)C23)OCO4)cc(OC)c1O` (stereo not drawn): the IC50 is above 10 µM. The viability, T/C (compound 0.0316 µM) is 94.5% and 86% and 83.5%. Besides, the viability, T/C (compound 0.1 µM) is 85% and 92% and 84.5%. For the same molecule, the viability, T/C (compound 0.316 µM) is 88% and 89.3% and 89.8%. For the same molecule, under “compound 1 µM”, the viability, T/C is 81.9% and 83.7% and 91%. In addition, the viability, T/C (compound 3.16 µM) is 99% and 101% and 88.6%. Moreover, the viability, T/C (compound 10 µM) is 92.4% and 79.9% and 85%.

Regarding `C=CC(=O)N1CCN(c2nc(=O)n(-c3c(C)ccnc3C(C)C)c3nc(-c4c(O)cccc4F)c(F)cc23)C(C)C1` (stereo not drawn), the IC50 was above 10 µM. The viability, T/C (compound 0.0316 µM) was 107% and 92.8% and 91.6%. For the setting “compound 0.1 µM”, the viability, T/C is 89.2% and 119% and 77.8%. Moreover, the viability, T/C (compound 0.316 µM) is 102% and 80.8% and 89%. The viability, T/C (compound 1 µM) was 96.7% and 101% and 87.3%. In addition, the viability, T/C (compound 3.16 µM) is 98.4% and 92.5% and 85.8%. Besides, the viability, T/C (compound 10 µM) is 91.2% and 93.1% and 84.2%.

Take `Cc1[nH]c2ccccc2c1CCNCc1ccc(/C=C/C(=O)NO)cc1`: the half-inhibitory concentration (IC50) was 0.178 µM and 0.155 µM and 0.257 µM. For the same molecule, the viability, T/C (compound 0.000999 µM) was 86.2% and 100% and 95.1%. Moreover, the viability, T/C (compound 0.00316 µM) was 71% and 96.2% and 83.8%. In addition, under “compound 0.00999 µM”, the viability, T/C was 96.1% and 81.2% and 98.1%. Moreover, under “compound 0.0316 µM”, the viability, T/C was 80.3% and 84% and 82.8%. Moreover, the viability, T/C (compound 0.0999 µM) was 80.9% and 60.8% and 86.1%. Besides, the viability, T/C (compound 0.316 µM) was 19.3% and 31.7% and 41.9%.
